Assay results from patent US20230085307A1, “PYRIDAZINONE COMPOUND AND HERBICIDE” (NISSAN CHEMICAL CORPORATION, priority 2019, published 2023).

Columns and labels:
[1] = test system: barnyard grass; assay: Test Example 3: herbicidal effect by foliage application, Wagner pot (Table 18, symbol H); type: in vivo, barnyard grass (Echinochloa crus-galli); conditions: amount of applied herbicide 320 g/ha
Procedure, shortened: (§1)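 Plants were sown in alluvial soil held under 0.1–0.5 cm standing water and grown 14 days in a greenhouse at 25–30 °C. An emulsifiable formulation, water-diluted to the set dose, was then sprayed onto the foliage, and effects were scored three weeks later using previously defined criteria.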

[2] = test system: Chinese sprangletop; assay: Test Example 3: herbicidal effect by foliage application, Wagner pot (Table 18, symbol D); type: in vivo, chinese sprangletop (Leptochloa chinensis); conditions: amount of applied herbicide 320 g/ha
Procedure, shortened: as §1

[3] = test system: rice flat sedge; assay: Test Example 3: herbicidal effect by foliage application, Wagner pot (Table 18, symbol E); type: in vivo, rice flat sedge (Cyperus iria); conditions: amount of applied herbicide 320 g/ha
Procedure, shortened: as §1

[4] = test system: southern crabgrass; assay: Test Example 4: herbicidal effect by soil treatment (Table 19, symbol F); type: in vivo, southern crabgrass (Digitaria ciliaris); conditions: amount of applied herbicide 320 g/ha
Procedure, shortened: (§2)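 Scoring uses the grading scale of an earlier test, three weeks post-application. Treatment consists of spraying a diluted emulsion formulation across the surface of sterilized diluvial soil in which seeds are buried near 1.5 cm deep; boxes are kept in a greenhouse between 25° C. and 30° C.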

[5] = test system: green foxtail; assay: Test Example 4: herbicidal effect by soil treatment (Table 19, symbol G); type: in vivo, green foxtail (Setaria viridis); conditions: amount of applied herbicide 320 g/ha
Procedure, shortened: as §2

[6] = test system: barnyard grass; assay: Test Example 4: herbicidal effect by soil treatment (Table 19, symbol H); type: in vivo, barnyard grass (Echinochloa crus-galli); conditions: amount of applied herbicide 320 g/ha
Procedure, shortened: as §2

[7] = test system: wild oat; assay: Test Example 4: herbicidal effect by soil treatment (Table 19, symbol I); type: in vivo, wild oat (Avena fatua); conditions: amount of applied herbicide 320 g/ha
Description: (§3) [Test Example 4] Herbicidal Effect Test by Soil Treatment
(§4) Sterilized diluvial soil was placed in a plastic box having a length of 21 cm, a width of 13 cm, and a depth of 7 cm. The seeds of each of southern crabgrass, green foxtail, barnyard grass, wild oat, blackgrass, Italian ryegrass, windgrass, velvetleaf, redroot pigweed, lambsquarters, chickweed, false cleavers, persian speedwell, corn, soybean, rice, wheat, beet, and rapeseed were sowed in a spot-like manner and covered with the soil having a thickness of about 1.5 cm. Subsequently, the emulsion agent of the compound of the present invention prepared according to Formulation Example 2 was diluted with water so as to achieve a predetermined herbicide amount, and the diluted emulsion agent was uniformly applied to the surface of the soil with a small-sized spray. The plastic box was placed in a greenhouse at 25° C. to 30° C. for growth of the plants. Three weeks after the herbicide application, the effect of the herbicide on each plant was evaluated according to the criteria of Test Example 1.

[8] = test system: blackgrass; assay: Test Example 4: herbicidal effect by soil treatment (Table 19, symbol J); type: in vivo, blackgrass (Alopecurus myosuroides); conditions: amount of applied herbicide 320 g/ha
Procedure, shortened: as §2

[9] = test system: Italian ryegrass; assay: Test Example 4: herbicidal effect by soil treatment (Table 19, symbol K); type: in vivo, Italian ryegrass (Lolium multiflorum); conditions: amount of applied herbicide 320 g/ha
Description: as §3, §4

[10] = test system: windgrass; assay: Test Example 4: herbicidal effect by soil treatment (Table 19, symbol L); type: in vivo, windgrass (Apera spica-venti); conditions: amount of applied herbicide 320 g/ha
Description: as §3, §4

[11] = test system: velvetleaf; assay: Test Example 4: herbicidal effect by soil treatment (Table 19, symbol M); type: in vivo, velvetleaf (Abutilon theophrasti); conditions: amount of applied herbicide 320 g/ha
Procedure, shortened: as §2

[12] = test system: redroot pigweed; assay: Test Example 4: herbicidal effect by soil treatment (Table 19, symbol N); type: in vivo, redroot pigweed (Amaranthus retroflexus); conditions: amount of applied herbicide 320 g/ha
Procedure, shortened: as §2

[13] = test system: lambsquarters; assay: Test Example 4: herbicidal effect by soil treatment (Table 19, symbol O); type: in vivo, lambsquarters (Chenopodium album); conditions: amount of applied herbicide 320 g/ha
Procedure, shortened: as §2

[14] = test system: chickweed; assay: Test Example 4: herbicidal effect by soil treatment (Table 19, symbol P); type: in vivo, common chickweed (Stellaria media); conditions: amount of applied herbicide 320 g/ha
Description: as §3, §4

[15] = test system: southern crabgrass; assay: Test Example 5: herbicidal effect by foliage application, plastic box (Table 20, symbol F); type: in vivo, southern crabgrass (Digitaria ciliaris); conditions: foliage application, 320 g/ha, evaluated three weeks after application
Procedure, shortened: (§5)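 Post-emergence foliar test in sterilized diluvial soil. Compound applied as water-diluted emulsion at a predetermined rate to 14-day-old plants; evaluation at three weeks.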

[16] = test system: green foxtail; assay: Test Example 5: herbicidal effect by foliage application, plastic box (Table 20, symbol G); type: in vivo, green foxtail (Setaria viridis); conditions: foliage application, 320 g/ha, evaluated three weeks after application
Procedure, shortened: as §5

[17] = test system: barnyard grass; assay: Test Example 5: herbicidal effect by foliage application, plastic box (Table 20, symbol H); type: in vivo, barnyard grass (Echinochloa crus-galli); conditions: foliage application, 320 g/ha, evaluated three weeks after application
Procedure, shortened: as §5

[18] = test system: wild oat; assay: Test Example 5: herbicidal effect by foliage application, plastic box (Table 20, symbol I); type: in vivo, wild oat (Avena fatua); conditions: foliage application, 320 g/ha, evaluated three weeks after application
Procedure, shortened: as §5

[19] = test system: blackgrass; assay: Test Example 5: herbicidal effect by foliage application, plastic box (Table 20, symbol J); type: in vivo, blackgrass (Alopecurus myosuroides); conditions: foliage application, 320 g/ha, evaluated three weeks after application
Procedure, shortened: as §5

[20] = test system: Italian ryegrass; assay: Test Example 5: herbicidal effect by foliage application, plastic box (Table 20, symbol K); type: in vivo, Italian ryegrass (Lolium multiflorum); conditions: foliage application, 320 g/ha, evaluated three weeks after application
Procedure, shortened: as §5

[21] = test system: windgrass; assay: Test Example 5: herbicidal effect by foliage application, plastic box (Table 20, symbol L); type: in vivo, windgrass (Apera spica-venti); conditions: foliage application, 320 g/ha, evaluated three weeks after application
Procedure, shortened: as §5

[22] = test system: velvetleaf; assay: Test Example 5: herbicidal effect by foliage application, plastic box (Table 20, symbol M); type: in vivo, velvetleaf (Abutilon theophrasti); conditions: foliage application, 320 g/ha, evaluated three weeks after application
Procedure, shortened: as §5

[23] = test system: redroot pigweed; assay: Test Example 5: herbicidal effect by foliage application, plastic box (Table 20, symbol N); type: in vivo, redroot pigweed (Amaranthus retroflexus); conditions: foliage application, 320 g/ha, evaluated three weeks after application
Procedure, shortened: as §5

[24] = test system: lambsquarters; assay: Test Example 5: herbicidal effect by foliage application, plastic box (Table 20, symbol O); type: in vivo, lambsquarters (Chenopodium album); conditions: foliage application, 320 g/ha, evaluated three weeks after application
Procedure, shortened: as §5

[25] = test system: chickweed; assay: Test Example 5: herbicidal effect by foliage application, plastic box (Table 20, symbol P); type: in vivo, common chickweed (Stellaria media); conditions: foliage application, 320 g/ha, evaluated three weeks after application
Procedure, shortened: as §5

[26] = test system: persian speedwell; assay: Test Example 5: herbicidal effect by foliage application, plastic box (Table 20, symbol R); type: in vivo, Persian speedwell (Veronica persica); conditions: foliage application, 320 g/ha, evaluated three weeks after application
Procedure, shortened: as §5

SMILES: COc1ccc(-c2sc3ccc(Cl)cc3c2-c2c(O)c(C)nn(C)c2=O)cc1C [2-119]
- herbicidal effect on H: barnyard grass [1]: 3 (Herbicidal rate of 40% or more and less than 70%)
- herbicidal effect on D: Chinese sprangletop [2]: 2 (Herbicidal rate of 20% or more and less than 40%)
- herbicidal effect on E: rice flat sedge [3]: 3 (Herbicidal rate of 40% or more and less than 70%)
- F: southern crabgrass, herbicidal effect rating [4]: 0 (Herbicidal rate of 5% or less (almost no effect))
- G: green foxtail, herbicidal effect rating [5]: 0 (Herbicidal rate of 5% or less (almost no effect))
- H: barnyard grass, herbicidal effect rating [6]: 0 (Herbicidal rate of 5% or less (almost no effect))
- I: wild oat, herbicidal effect rating [7]: 0 (Herbicidal rate of 5% or less (almost no effect))
- J: blackgrass, herbicidal effect rating [8]: 0 (Herbicidal rate of 5% or less (almost no effect))
- K: Italian ryegrass, herbicidal effect rating [9]: 0 (Herbicidal rate of 5% or less (almost no effect))
- L: windgrass, herbicidal effect rating [10]: 0 (Herbicidal rate of 5% or less (almost no effect))
- M: velvetleaf, herbicidal effect rating [11]: 0 (Herbicidal rate of 5% or less (almost no effect))
- N: redroot pigweed, herbicidal effect rating [12]: 0 (Herbicidal rate of 5% or less (almost no effect))
- O: lambsquarters, herbicidal effect rating [13]: 2 (Herbicidal rate of 20% or more and less than 40%)
- P: chickweed, herbicidal effect rating [14]: 0 (Herbicidal rate of 5% or less (almost no effect))
- herbicidal effect on F: southern crabgrass [15]: 0 (Herbicidal rate of 5% or less (almost no effect))
- herbicidal effect on G: green foxtail [16]: 0 (Herbicidal rate of 5% or less (almost no effect))
- herbicidal effect on H: barnyard grass [17]: 1 (Herbicidal rate of 5% or more and less than 20%)
- herbicidal effect on I: wild oat [18]: 0 (Herbicidal rate of 5% or less (almost no effect))
- herbicidal effect on J: blackgrass [19]: 3 (Herbicidal rate of 40% or more and less than 70%)
- herbicidal effect on K: Italian ryegrass [20]: 0 (Herbicidal rate of 5% or less (almost no effect))
- herbicidal effect on L: windgrass [21]: 0 (Herbicidal rate of 5% or less (almost no effect))
- herbicidal effect on M: velvetleaf [22]: 3 (Herbicidal rate of 40% or more and less than 70%)
- herbicidal effect on N: redroot pigweed [23]: 0 (Herbicidal rate of 5% or less (almost no effect))
- herbicidal effect on O: lambsquarters [24]: 3 (Herbicidal rate of 40% or more and less than 70%)
- herbicidal effect on P: chickweed [25]: 1 (Herbicidal rate of 5% or more and less than 20%)
- herbicidal effect on R: persian speedwell [26]: 3 (Herbicidal rate of 40% or more and less than 70%)
